Measured values published in patent US10039729B2, “Use of kukoamine A and kukoamine B” (Tianjin Chase Sun Pharmaceutical Co., Ltd., priority 2010, dated 2018).

Assays:
[1] = system: NF-κB; assay: NF-κB activation in RAW264.7 cells (ELISA of nuclear p50/p65, luciferase reporter gene assay); assay type: cell-based, murine; details: KB 200 μM
Experimental: […]
Detection of NF-κB activation using ELISA: Each well was added with 30 μl binding solution (3.2 μl DTT and 16.2 μl Herring sperm DNA were diluted in 1.6 ml binding solutions); each sample well was added with 20 μl sample ([…]); positive control wells was added with 20 μl p50; blank control wells were added with 20 μl dissolution buffer (0.9 μl 1M DTT and 1.8 μl protease inhibitors was diluted in 177.3 μl dissolution buffer AM2); the microtiter plate was shaken for 30 seconds for completely mixing, incubated at room temperature for 1 h, and then washed thrice with 200 μl 1×wash solution (450 μl 10×wash solution were diluted in 4.05 ml ddH2O) and gentle shaking for 5 min each time; each well was added with 100 μl NF-κB antibody (1:1000), incubated for 1 h, then washed thrice with 200 μl 1×wash solution and gentle shaking for 5 min each time; each well was added with 100 μl HRP antibody (1:1000), incubated for 1 h, then washed four times with 200 μl 1×wash solution and gentle shaken for 5 min each time; each well was added with 100 μl detection reagent, incubated for 5 min away from light, and then added with 100 μl stop solution; the absorbance value at 450 nm of each well was detected. […]

[2] = system: RAW264.7 cells; assay: mRNA expression in RAW264.7 cells stimulated by LPS and CpG DNA (real-time PCR); assay type: cell-based, murine
Experimental: Cells preparation: Cells suspension was adjusted to 1×10^6/ml in DMEM supplemented with 10% (v/v) NCS; 2 ml of the above suspension was added into 6-well plates and cultured at 37° C. in a 5% CO2 humidified incubator for 2 h; for the purpose of experiment four groups were established: medium group, KB control group, stimulation group and KB treatment group; no reagent was added in medium group; KB control group was added with KB (200 μM); stimulation group was added with LPS (100 ng/ml) and CpG DNA (10 μg/ml); KB treatment group was added with KB (concentrations of 100 and 200 μM) in the meantime of adding LPS and CpG DNA; cells were cultured for 4 h and collected.
RNA extraction: Supernatant was sucked and discarded; 1 ml tripure was added into each well and resuspended with a pipet to make cells completely lysed; the lysate was transferred into 1.5 ml EP tube and incubated at room temperature for 5 min to ensure completed separation of ribonucleoprotein complex; 0.2 ml chloroform was added into EP tube; tube cap was closed and mixed by inversion for 15 sec; EP tube was incubated at room temperature for 10 min until layering of the liquid in tube, then centrifuged at 12000 g at 4_for 15 min; solution was separated into the three-phase; the upper solution (colorless liquid, approximately 0.4 ml) in EP tube was transferred into a new EP tube (DEPC treated); 0.5 ml isopropyl alcohol was added into EP tubes and the liquid was mixed by inversion for several times; EP tube was incubated at room temperature for 10 min to promote RNA precipitating, and centrifuged at 12000 g at 4_for 10 min; the supernatant was discarded; RNA precipitate was added with 1 ml 75% ethanol, vortex washed, and centrifuged at 12000 g at 4 for 10 min; then the supernatant was discarded; EP tube was dried at room temperature for 15 min to remove excessive ethanol; RNA precipitate was diluted with 20 μl ddH2O treated with DEPC, resuspended by pipetting in and out several times, incubated at 55 to 60 for 10 min, and then stored at −70.
Reverse transcription: Reverse-transcription reaction mixture (include: Rnase-free H2O, 10 μl; 5×RT buffer, 4 μl; dNTP mixture, 2 μl; RNase inhibitor, 1 μl; Oligo(dT)20, 1 μl; RNA, 1 μl; ReverTra Ace, 1 μl) was prepared on ice bath, mixed, incubated at 42° C. for 1 h and at 99° C. for 5 min, stored at −20.
PCR amplification: Primers were designed using Primer Premier 5 software by ourselves, and synthesized by Shanghai Sangon Biological Engineering Technology & Services Co., Ltd. The relevant primer sequences are as follows […]
Results were expressed as CT value, and converted into ratio of β-actin, the internal reference items, according to 2^−ΔΔCT methods. […]

NCCCN(CCCCNCCCNC(=O)CCc1ccc(O)c(O)c1)C(=O)CCc1ccc(O)c(O)c1 [KB, Kukoamine B]
increase of p50 and p65 levels in nuclear proteins induced by LPS and CpG DNA ([1]; 2 h, ELISA): significantly inhibited | NF-κB activation induced by LPS and CpG DNA (luciferase reporter gene assay) ([1]; 6 h): inhibit NF-κB activation | mRNA expressions of TNF-α, IL-6, iNOS and COX-2 up-regulated by CpG DNA ([2]; 100, 200 μM, CpG DNA 10 μg/ml, 4 h, dose-dependent): significantly inhibit the mRNA expressions | mRNA expressions of TNF-α, IL-6, iNOS and COX-2 up-regulated by LPS ([2]; 100, 200 μM, LPS 100 ng/ml, 4 h, dose-dependent): significantly inhibit the mRNA expressions | up-regulated expression of TLR4 induced by LPS and CpG DNA ([2]; KB 100 and 200 μM, RT-PCR): significantly inhibited | up-regulated expression of TLR9 induced by LPS and CpG DNA ([2]; KB 100 and 200 μM, RT-PCR): significantly inhibited
